The source of these data is patent publication US20190262453A1, “DESIGN AND COMPOSITION OF CELL-STABILIZED PHARMACEUTICAL FORMULATIONS” (THE REGENTS OF THE UNIVERSITY OF MICHIGAN, priority 2016, published 2019).

The data set deals with peritoneal macrophages. As to the kind of experiment: Peritoneal lavage: cell counts and CLDI-containing cells. To be noted: PBS-CFZ fed group, peritoneal cavity. It counts as in vivo, Mice. The procedure:
In order to deplete tissue macrophages, mice were treated with liposomes containing either 7 mg/mL clodronate or phosphate-buffered saline (PBS) (FormuMax Scientific Inc., Sunnyvale, Calif.) for up to six weeks. Liposomes were injected IP to eliminate macrophages of the liver, spleen, and peritoneal cavity. Mice were initially treated with 200 μL of liposomes, followed by 100 μL injections twice per week to ensure continual depletion of macrophages. Mice were fed CFZ or a control diet continuously for a four week period. Following two weeks of feeding, liposome treatment began for two weeks. After completing four weeks of feeding and two weeks of liposome treatment, the mice were sacrificed and tissues were collected. Following euthanasia, a small incision was made in the lower abdomen. […] The peritoneal lavage was centrifuged for 10 min at 400×g, 4° C,and then resuspended in DMEM media (Life Technologies). The cells were then plated onto 4 or 8 chamber coverglass (#1.5, Lab-Tek II, Nunc, Rochester, N.Y.) for imaging. The cells were allowed to attach overnight and then washed with media.

Molecules are shown by their SMILES.

For the compound `CC(C)N=c1cc2n(-c3ccc(Cl)cc3)c3ccccc3nc-2cc1Nc1ccc(Cl)cc1` [CFZ, 3-(p-chloroanilino)-10-(p-chlorophenyl)-2, 10-dihydro-2-isopropyliminophenazine], the “macrophages containing at least one intracellular CLDI” value is “approximately 50%”.
